Experimental data reported in ChEMBL document CHEMBL1148807 (J Med Chem, 2007).
Calls of active or inactive are those of the source. No cut-off for these calls is given here. Non-standard residues stand in square brackets, D forms with d. Residues, ends and D or L forms follow the SMILES beside them. *: point of attachment. X1 = O=C(Cc1ccc(O)cc1)*

Assays:
Vasopressin V1a receptor [1] = molecular target: T1, Vasopressin V1a receptor (Homo sapiens, UniProt P37288); test: Inhibition of human vasopressin V1a receptor expressed in COS7 cells by HTRF-FRET assay using 96-well plate cells; assay type: cell-based; details: cos-7
Target sequence in this assay (P37288 whole entry): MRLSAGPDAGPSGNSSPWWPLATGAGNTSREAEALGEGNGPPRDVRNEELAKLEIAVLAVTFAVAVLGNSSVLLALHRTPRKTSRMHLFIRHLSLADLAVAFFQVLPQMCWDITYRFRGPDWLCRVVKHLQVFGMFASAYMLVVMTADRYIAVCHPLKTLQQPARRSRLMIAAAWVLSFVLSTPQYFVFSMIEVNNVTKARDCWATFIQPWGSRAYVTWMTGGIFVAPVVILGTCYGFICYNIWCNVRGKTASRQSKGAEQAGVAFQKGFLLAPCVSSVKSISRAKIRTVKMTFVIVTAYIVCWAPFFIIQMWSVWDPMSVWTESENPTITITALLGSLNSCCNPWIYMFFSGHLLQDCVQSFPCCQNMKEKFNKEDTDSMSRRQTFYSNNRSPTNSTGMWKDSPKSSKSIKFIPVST

Vasopressin V1a receptor [2] = molecular target: T1, Vasopressin V1a receptor; test: Inhibition of human vasopressin V1a receptor expressed in CHO cells by polarisation binding assay using 96-well plate membranes; assay type: cell-based
Target sequence in this assay (P37288 whole entry): as above

Vasopressin V1a receptor [3] = molecular target: T1, Vasopressin V1a receptor; test: Inhibition of human vasopressin V1a receptor expressed in CHO cells by polarisation binding assay using 384-well plate membranes; assay type: cell-based
Target sequence in this assay (P37288 whole entry): as above

Vasopressin V1a receptor [4] = molecular target: T1, Vasopressin V1a receptor; test: Inhibition of human vasopressin V1a receptor expressed in COS7 cells by HTRF-FRET assay using 384-well plate membranes; assay type: cell-based; details: cos-7
Target sequence in this assay (P37288 whole entry): as above

Vasopressin V1a receptor [5] = molecular target: T1, Vasopressin V1a receptor; test: Inhibition of human vasopressin V1a receptor expressed in COS7 cells by HTRF-FRET assay using 96-well plate membranes; assay type: cell-based; details: cos-7
Target sequence in this assay (P37288 whole entry): as above

Vasopressin V1b receptor = molecular target: T2, Vasopressin V1b receptor (Homo sapiens, UniProt P47901); test: Displacement of [3H]AVP from human vasopressin V1b receptor expressed in CHO cells; assay type: cell-based
T2 sequence (P47901 whole entry): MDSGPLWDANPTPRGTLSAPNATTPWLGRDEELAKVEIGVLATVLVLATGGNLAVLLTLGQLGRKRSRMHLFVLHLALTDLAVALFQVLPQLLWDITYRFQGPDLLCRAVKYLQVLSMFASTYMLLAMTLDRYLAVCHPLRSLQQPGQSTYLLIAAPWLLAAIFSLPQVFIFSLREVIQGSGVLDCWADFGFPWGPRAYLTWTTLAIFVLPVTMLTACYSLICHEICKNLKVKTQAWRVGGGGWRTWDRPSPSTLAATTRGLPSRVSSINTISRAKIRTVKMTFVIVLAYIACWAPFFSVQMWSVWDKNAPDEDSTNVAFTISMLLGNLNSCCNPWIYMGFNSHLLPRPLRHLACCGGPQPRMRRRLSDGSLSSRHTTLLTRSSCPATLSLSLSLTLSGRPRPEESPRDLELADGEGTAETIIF

[6] = molecular target: T3, Oxytocin receptor (Homo sapiens) (UniProt P30559); test: Antagonist activity at oxytocin receptor expressed in CHO cells assessed as AVP-induced inositol monophosphate accumulation by IP-one ELISA test; assay type: functional, cell-based
T3 sequence (whole entry): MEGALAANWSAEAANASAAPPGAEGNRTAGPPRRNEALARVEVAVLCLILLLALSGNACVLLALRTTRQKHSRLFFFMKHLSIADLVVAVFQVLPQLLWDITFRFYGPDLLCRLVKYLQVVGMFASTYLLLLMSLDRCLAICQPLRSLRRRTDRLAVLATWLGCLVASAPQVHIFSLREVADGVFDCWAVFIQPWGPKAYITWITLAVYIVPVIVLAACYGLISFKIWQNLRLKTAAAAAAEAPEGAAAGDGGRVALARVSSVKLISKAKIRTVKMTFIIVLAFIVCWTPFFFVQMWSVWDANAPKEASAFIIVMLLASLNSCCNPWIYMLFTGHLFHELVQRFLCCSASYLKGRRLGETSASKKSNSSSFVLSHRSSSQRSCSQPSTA

[7] = molecular target: T3, Oxytocin receptor (Homo sapiens); test: Agonist activity at human oxytocin receptor expressed in CHO cells assessed as accumulation of inositol phosphate up to 1 uM; assay type: functional, cell-based
Vasopressin V1a receptor [8] = molecular target: T1, Vasopressin V1a receptor; test: Displacement of [3H]AVP from human vasopressin V1a receptor expressed in CHO cells; assay type: cell-based
Target sequence in this assay (P37288 whole entry): as the sequence (P37288 whole entry) above

Vasopressin V2 receptor = Vasopressin V2 receptor (Homo sapiens, UniProt P30518); test: Displacement of [3H]AVP from human vasopressin V2 receptor expressed in CHO cells; assay type: cell-based
Vasopressin V2 receptor, sequence (P30518 whole entry): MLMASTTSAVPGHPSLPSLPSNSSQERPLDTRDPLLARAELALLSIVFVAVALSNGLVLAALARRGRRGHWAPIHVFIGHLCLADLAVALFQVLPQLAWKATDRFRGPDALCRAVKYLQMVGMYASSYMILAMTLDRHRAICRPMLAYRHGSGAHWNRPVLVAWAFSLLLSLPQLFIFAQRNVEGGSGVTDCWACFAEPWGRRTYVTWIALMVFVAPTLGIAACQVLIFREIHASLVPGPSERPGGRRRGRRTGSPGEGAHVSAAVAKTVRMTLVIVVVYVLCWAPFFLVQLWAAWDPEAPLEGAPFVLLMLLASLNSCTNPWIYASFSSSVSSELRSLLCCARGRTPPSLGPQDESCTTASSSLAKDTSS

Oxytocin receptor = molecular target: T4, Oxytocin receptor (Homo sapiens, UniProt P30559); test: Displacement of [3H]AVP from human oxytocin receptor expressed in CHO cells; assay type: cell-based
T4 sequence (P30559 whole entry): T3 sequence (whole entry)

Vasopressin V1a receptor [9] = molecular target: T1, Vasopressin V1a receptor; test: Antagonist activity at human vasopressin V1a receptor expressed in CHO cells assessed as AVP-induced inositol monophosphate accumulation by IP-one ELISA test; assay type: functional, cell-based
Target sequence in this assay (P37288 whole entry, looked up): as the sequence (P37288 whole entry) above

Vasopressin V1a receptor [10] = molecular target: T1, Vasopressin V1a receptor; test: Agonist activity at human vasopressin V1a receptor expressed in CHO cells assessed as accumulation of inositol phosphate up to 1 uM; assay type: functional, cell-based
Target sequence in this assay (P37288 whole entry, looked up): as the sequence (P37288 whole entry) above

| Compound | Ki (Vasopressin V1a receptor [1]) | Ki (Vasopressin V1a receptor [2]) | Ki (Vasopressin V1a receptor [3]) | Ki (Vasopressin V1a receptor [4]) | Ki (Vasopressin V1a receptor [5]) | Ki (Vasopressin V1b receptor) | Kinact [6] | Activity [7] | Ki (Vasopressin V1a receptor [8]) | Ki (Vasopressin V2 receptor) | Ki (Oxytocin receptor) | Kinact (Vasopressin V1a receptor [9]) | Activity (Vasopressin V1a receptor [10]) |
| --- | --- | --- | --- | --- | --- | --- | --- | --- | --- | --- | --- | --- | --- |
| COc1ccc(C[C@@H](NC(=O)Cc2ccc(O)cc2)C(=O)N[C@@H](Cc2ccccc2)C(=O)N[C@@H](CCC(N)=O)C(=O)N[C@@H](CC(N)=O)C(=O)N[C@@H](CCCN=C(N)N)C(=O)N2CCC[C@H]2C(=O)N[C@@H](CCCN=C(N)N)C(N)=O)cc1 (X1-[dY](Me)FQNRPR-NH2) | 0.28 nM | 0.036 nM | 0.032 nM | 0.21 nM | 0.21 nM | – | – | – | – | – | – | – | – |
| CC1CC(C)(C)Nc2c1cc1c(c2S(=O)(=O)O)OC2C(=C1c1c(Cl)c(SCC(=O)NCCCCCC(=O)N(C(=O)[C@H]3CCN(C(=O)[C@H](CCCNC(=N)N)NC(=O)[C@H](CC(N)=O)NC(=O)[C@H](CCC(N)=O)NC(=O)[C@H](Cc4ccccc4)NC(=O)[C@@H](Cc4ccc(O)cc4)N(C)C(=O)CCc4ccc(O)cc4)C3)[C@@H](CCCCN)C(N)=O)c(Cl)c(Cl)c1C(=O)O)CC1C(=NC(C)(C)CC1C)C2S(=O)(=O)O (stereo partly drawn) | – | – | – | – | – | 100 nM | 0.17 nM | inactive | 0.09 nM | > 1000 nM | 1.04 nM | 0.28 nM | inactive |
